We go through 3 compounds from publication PMC5863515, “Re-evaluation of Adrenocorticotropic Hormone and Melanocyte Stimulating Hormone Activation of GPR139 in Vitro” (Frontiers in Pharmacology, 2018).

Experiment [1] deals with T1, GPR139 (Homo sapiens, UniProt Q6DWJ6).
T1 sequence (Q6DWJ6 1-353): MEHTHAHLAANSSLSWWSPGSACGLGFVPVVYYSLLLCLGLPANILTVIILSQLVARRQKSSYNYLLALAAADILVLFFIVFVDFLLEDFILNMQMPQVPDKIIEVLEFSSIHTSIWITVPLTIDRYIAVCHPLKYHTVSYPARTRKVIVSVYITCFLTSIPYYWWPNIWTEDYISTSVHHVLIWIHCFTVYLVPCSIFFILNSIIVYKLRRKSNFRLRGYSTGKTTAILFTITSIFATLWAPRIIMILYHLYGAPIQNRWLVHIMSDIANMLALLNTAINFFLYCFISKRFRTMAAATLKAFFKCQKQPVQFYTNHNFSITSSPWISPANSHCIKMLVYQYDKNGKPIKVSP
Kind of experiment: [3H]JNJ-63533054 radioligand binding assay, membranes of CHO-TREx cells stably expressing human GPR139. Set-up: expressed in transfected cells; host or cells: CHO-TREx GPR139 clone#18. Here is the method:
Reaction was terminated by filtration through GF/C filterplates pre-treated with PEI (polyethyleneimine) followed by washes with ice-cold TE buffer. Filterplates were dried in a 60°C oven followed by addition of Microscint-0. Bound radioactivity was read on a Topcount scintillation counter. […] Half-maximal inhibitory concentrations (IC50s) of test compounds were calculated by fitting a three-parameter logistic curve using least-squares non-linear regression analysis as implemented in Graphpad Prism 7.0. The Top plateau was fixed at 100 and the Bottom was fixed at 0.

The target of a further experiment is T2, MC5R (Homo sapiens, UniProt P33032).
T2 construct: expressed in transfected cells; host or cells: HEK-293, pCIneo, transient (FuGene HD)
T2 sequence (P33032 whole entry): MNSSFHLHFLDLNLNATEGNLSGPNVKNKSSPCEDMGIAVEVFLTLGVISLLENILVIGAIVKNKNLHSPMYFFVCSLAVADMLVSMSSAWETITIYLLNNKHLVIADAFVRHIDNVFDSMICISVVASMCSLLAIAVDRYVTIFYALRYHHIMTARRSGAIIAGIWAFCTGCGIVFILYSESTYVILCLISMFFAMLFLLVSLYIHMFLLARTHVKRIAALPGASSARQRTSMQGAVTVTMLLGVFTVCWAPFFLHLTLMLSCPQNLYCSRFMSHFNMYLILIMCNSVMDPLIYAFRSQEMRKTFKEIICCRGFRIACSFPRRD
Kind of experiment: Calcium mobilization, HEK-293 transiently expressing MC5R. In kind it is cell-based. Conditions: HEK-293 transient; read-out: Agonist potency (pEC50), MC5R (converted). The procedure: (§1) Human MC3R (NM_019888), MC4R (NM_005912), and MC5R (NM_005913) were transiently expressed in HEK-293 cells with and without human GPR139 (KR081941) or the chimeric G-protein Gα16. All genes were cloned into pCIneo (Promega, Madison, WI, United States, #E1841). HEK-293 cells were cultured in DMEM/F12 (Gibco, Grand Island, NY, United States, #11039-021), 10% FBS (Hyclone, Logan, UT, United States, # SH300700.03), 50 units/ml penicillin and 50 μg/ml streptomycin (Mediatech, Manassas, VA, United States, #30-001-CI). Cells were seeded at 4 × 10^6 cells in 10 cm dishes and allowed to grow overnight at 37°C, 5% CO2. On the day of transfection, culture media was replaced with F12-K (Mediatech, Manassas, VA, United States, #10-025-CV), 10% FBS, 20 mM HEPES (Hyclone, Logan, UT, United States, #SH30237.01) and transfected with 15 μg DNA (10 μg MCR:5 μg pCIneo, 10 μg MCR:5 μg Gα16 or 7.5 μg MCR:7.5 μg GPR139) using FuGene HD (Promega, Madison, WI, United States, #E2311) according to manufacturer’s instructions. MC3R, MC4R, and MC5R were also transiently expressed in the following GPR139 stably expressing cell lines using the FuGENE HD method: HEK-293 GPR139 clone#33, CHO-TREx GPR139 clone#18, and SK-N-MC/CRE TREx GPR139 clone#35. Stable cell lines were established according to method previously described ([Liu et al., 2015]).
(§2) Intracellular calcium mobilization was measured with the BD calcium kit (BD Bioscience, San Jose, CA, United States). The recombinant cell lines expressing MC3R, MC4R, and MC5R with and without GPR139 or Gα16 were seeded in culture media at a density of 50,000 cells/well into 96-well black/clear-bottom poly-D-lysine treated tissue culture plates. Cells were incubated overnight at 37°C and 5% CO2. Next day, culture media was removed and cells were washed with HBSS prior to dye-loading for 1 h at 37°C and 5% CO2. […] EC50s were calculated by fitting a three-parameter logistic curve using least-squares non-linear regression analysis as implemented in Graphpad Prism 7.0.

A further experiment concerns the target MC4R + Gα16 (Homo sapiens, UniProt P32245). Nature of the experiment: Calcium mobilization, HEK-293 transiently expressing MC4R + Gα16. In kind it is cell-based. Also noted: expressed in transfected cells; host or cells: HEK-293, pCIneo, transient (10 μg MCR:5 μg Gα16). Here is the method: as §1, §2
The next experiment concerns the target GPR139 + MC4R (Homo sapiens, UniProt Q6DWJ6). Nature of the experiment: Calcium mobilization, stable GPR139-HEK-293 cell line transiently expressing MC4R. In kind it is cell-based. Here is the method: as §1, §2
(In general: Calcium assays in cells follow changes in intracellular calcium, usually with a dye or a luminescent sensor.)

Experiment [2] concerns the target T1, GPR139. Kind of experiment: Calcium mobilization, HEK-293 cells stably expressing human GPR139. In kind it is cell-based. Set-up: expressed in transfected cells. Here is the method:
as §1
(§3) Intracellular calcium mobilization was measured with the BD calcium kit (BD Bioscience, San Jose, CA, United States). The recombinant cell lines expressing MC3R, MC4R, and MC5R with and without GPR139 or Gα16 were seeded in culture media at a density of 50,000 cells/well into 96-well black/clear-bottom poly-D-lysine treated tissue culture plates. Cells were incubated overnight at 37°C and 5% CO2. Next day, culture media was removed and cells were washed with HBSS prior to dye-loading for 1 h at 37°C and 5% CO2. Agonist stimulation and intracellular calcium measurements were done on the FLIPR Tetra (Molecular Devices, Sunnyvale, CA, United States). For receptor inhibition analysis, antagonists (1 μM HS-024 or 10 μM JNJ-3792165) were added off-line 15 min prior to agonist addition on the Tetra. For G-protein inhibitor experiments, cells were treated with 1 μM YM-254890 for 5 min prior to agonist additions on the Tetra. […] Responses in Figure 6 were normalized to its respective agonist response without antagonist. EC50s were calculated by fitting a three-parameter logistic curve using least-squares non-linear regression analysis as implemented in Graphpad Prism 7.0.

In a further experiment the target is MC3R + GPR139 (Homo sapiens, UniProt Q6DWJ6). Kind of experiment: Calcium mobilization, HEK-293 transiently expressing MC3R + GPR139. It counts as cell-based.
Sequence of MC3R + GPR139 (P41968 whole entry partner, one chain of several): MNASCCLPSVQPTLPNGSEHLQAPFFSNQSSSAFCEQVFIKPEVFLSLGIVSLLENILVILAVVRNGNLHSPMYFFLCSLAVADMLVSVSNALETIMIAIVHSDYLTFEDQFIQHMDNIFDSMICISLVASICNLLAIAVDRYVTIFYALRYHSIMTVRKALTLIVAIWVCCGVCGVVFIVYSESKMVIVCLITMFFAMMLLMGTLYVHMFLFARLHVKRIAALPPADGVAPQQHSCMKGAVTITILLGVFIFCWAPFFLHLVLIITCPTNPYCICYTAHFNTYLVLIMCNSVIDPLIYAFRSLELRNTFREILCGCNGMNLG
The target of experiment [3] is T1, GPR139. Nature of the experiment: Calcium mobilization, SK-N-MC/CRE cells stably expressing human GPR139. In kind it is cell-based. Also noted: expressed in transfected cells; host or cells: CHO-TREx GPR139 clone#18. The procedure:
as §1, §3

The target of another experiment is GPR139 + MC5R (Homo sapiens, UniProt Q6DWJ6). Kind of experiment: Calcium mobilization, stable GPR139-HEK-293 cell line transiently expressing MC5R. In kind it is cell-based. Here is the method: as §1, §2
Sequence of GPR139 + MC5R (P33032 whole entry partner, one chain of several): as the sequence (P33032 whole entry) above
For experiment [4], the target named is T1, GPR139. Kind of experiment: Calcium mobilization, CHO-TREx cells stably expressing human GPR139. In kind it is cell-based. Set-up: expressed in transfected cells; host or cells: CHO-TREx GPR139 clone#18.
Setting [5] is: 10 nM radioligand, CHO-TREx GPR139 membranes, read-out: pKi, displacement of [3H]JNJ-63533054 (converted).
Where [6] appears, read: HEK-293 transient, read-out: Agonist potency (pEC50), MC4R + Gα16 (converted).
[7] abbreviates: HEK-293 stable GPR139, read-out: pEC50, calcium mobilization (converted).
[8] abbreviates: SK-N-MC/CRE stable GPR139, read-out: pEC50, calcium mobilization (converted).
Setting [9] is: CHO-TREx stable GPR139, read-out: pEC50, calcium mobilization (converted).

Like-named read-outs stand apart in the source and are kept apart here. Bounds are passed on as bounds.

Sequence of GPR139 + MC4R (P32245 whole entry partner, one chain of several): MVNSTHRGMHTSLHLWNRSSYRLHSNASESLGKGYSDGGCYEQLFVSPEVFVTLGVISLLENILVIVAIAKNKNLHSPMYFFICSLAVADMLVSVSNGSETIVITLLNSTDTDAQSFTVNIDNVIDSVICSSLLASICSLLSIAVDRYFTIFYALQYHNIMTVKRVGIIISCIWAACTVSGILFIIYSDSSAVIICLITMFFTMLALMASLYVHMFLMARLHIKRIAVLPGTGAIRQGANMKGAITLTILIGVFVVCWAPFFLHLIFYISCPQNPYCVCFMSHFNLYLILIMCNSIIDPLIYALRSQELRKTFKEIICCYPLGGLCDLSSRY
Sequence of MC4R + Gα16 (P32245 whole entry): as the sequence (P32245 whole entry partner, one chain of several) above
Experimental for MC3R + GPR139: Intracellular calcium mobilization was measured with the BD calcium kit (BD Bioscience, San Jose, CA, United States). The recombinant cell lines expressing MC3R, MC4R, and MC5R with and without GPR139 or Gα16 were seeded in culture media at a density of 50,000 cells/well into 96-well black/clear-bottom poly-D-lysine treated tissue culture plates. Cells were incubated overnight at 37°C and 5% CO2. Next day, culture media was removed and cells were washed with HBSS prior to dye-loading for 1 h at 37°C and 5% CO2. Agonist stimulation and intracellular calcium measurements were done on the FLIPR Tetra (Molecular Devices, Sunnyvale, CA, United States). […] EC50s were calculated by fitting a three-parameter logistic curve using least-squares non-linear regression analysis as implemented in Graphpad Prism 7.0.

Regarding `C[C@H](NC(=O)CNC(=O)c1cccc(Cl)c1)c1ccccc1` [JNJ-63533054, 3-chloro-N-[2-oxo-2-[[(1S)-1-phenylethyl]amino]ethyl]benzamide], the Ki at GPR139 [1] (setting [5]) was 0.0347 µM. Also, the EC50 was greater than 10 µM at MC5R; greater than 10 µM on MC4R + Gα16 (setting [6]); 0.0174 µM on GPR139 + MC4R; 0.0214 µM at GPR139 [2] (setting [7]); 0.0372 µM on MC3R + GPR139; 0.0263 µM at GPR139 [3] (setting [8]). In addition, the EC50 on GPR139 [4] (setting [9]) is 0.0132 µM. On MC3R + GPR139, the “Agonist potency (pEC50), MC3R + GPR139, No antagonist” value (“Agonist potency … No antagonist” for short) was 7.43 ± 0.09. Besides, the “Agonist potency (pEC50), stable GPR139-HEK-293 + MC5R” value on GPR139 + MC5R came out at 7.80 ± 0.07.
Turning to `N[C@@H](Cc1c[nH]c2ccccc12)C(=O)O` [L-Trp, L-tryptophan], at GPR139 [1] (setting [5]), the Ki was 646 µM. The EC50 on MC5R was greater than 3160 µM; at MC4R + Gα16 (setting [6]) it was greater than 3160 µM; at GPR139 + MC4R, 138 µM; at GPR139 [2] (setting [7]), 204 µM; at MC3R + GPR139, 87.1 µM; at GPR139 [3] (setting [8]), 398 µM. For the same compound, the EC50 on GPR139 + MC5R was 162 µM; on GPR139 [4] (setting [9]), 123 µM. Further, the “Agonist potency … No antagonist” value at MC3R + GPR139 was determined as 4.06 ± 0.06.
In the case of `COc1cc(OC)cc(C(=O)NNC(=O)Nc2cccc3ccccc23)c1` [TC-O9311], on GPR139 [1], the Ki was 0.0891 µM. Further, the EC50 was greater than 10 µM on MC5R; greater than 10 µM at MC4R + Gα16; 0.0617 µM at GPR139 + MC4R; 0.0776 µM on GPR139 [2]; 0.0692 µM on MC3R + GPR139; 0.049 µM at GPR139 [3]. Also, the figures for the EC50 at GPR139 + MC5R and on GPR139 [4] were 0.0417 µM and 0.0398 µM, respectively. Besides, the “Agonist potency … No antagonist” value at MC3R + GPR139 was found to be 7.16 ± 0.08.
